Reference: USRE36832E, “N-heteroaryl-N'-phenylurea derivatives, their production and use” (Nihon Nohyaku Co., LTD, priority 1993, dated 2000)

Key:
[1] = biological target: T1, acyl-CoA:cholesterol O-acyltransferase (ACAT) (Oryctolagus cuniculus, UniProt G1SFD9); test: Inhibitory activity on acyl-CoA:cholesterol O-acyltransferase (ACAT), intestinal mucosa microsomal fraction, [1-14C]oleyl-CoA incorporation into cholesterol esters; type: biochemical, white rabbit; conditions: read-out: Inhibition rate %
T1 construct: The intestinal mucosa of a white rabbit was homogenized and microsomal fraction was obtained by stepwise centrifugation; from tissue; host or cells: intestinal mucosa of white rabbit, microsomal fraction
T1 sequence (G1SFD9 1-524): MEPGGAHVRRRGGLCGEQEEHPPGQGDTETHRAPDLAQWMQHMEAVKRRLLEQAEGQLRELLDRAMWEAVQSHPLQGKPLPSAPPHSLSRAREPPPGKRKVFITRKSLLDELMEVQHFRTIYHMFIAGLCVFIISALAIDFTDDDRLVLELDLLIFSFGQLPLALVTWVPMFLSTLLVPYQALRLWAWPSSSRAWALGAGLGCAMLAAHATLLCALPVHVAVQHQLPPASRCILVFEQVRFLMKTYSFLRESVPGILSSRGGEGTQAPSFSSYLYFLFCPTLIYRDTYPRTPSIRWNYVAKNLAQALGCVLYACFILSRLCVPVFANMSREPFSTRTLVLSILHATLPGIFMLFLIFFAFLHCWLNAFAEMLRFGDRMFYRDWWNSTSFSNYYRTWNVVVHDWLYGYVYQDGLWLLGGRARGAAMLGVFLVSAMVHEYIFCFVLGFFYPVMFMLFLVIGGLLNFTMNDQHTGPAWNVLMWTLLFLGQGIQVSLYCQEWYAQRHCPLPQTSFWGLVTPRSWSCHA
Procedure: Inhibitory activity on acyl-CoA:cholesterol Oacyltransferase (ACAT)
The enzyme used in the test was prepared according to the method of Heider et al. [J. Lipid, Res. 24, 1127 (1983)]. The intestinal mucosa of a white rabbit was homogenized and microsomal fraction was obtained by stepwise centrifugation. The microsomal fraction was suspended in 0,154M phosphate buffer (pH 0 7.4) and stored at -80° C. until use.
ACAT activity was determined by a modification of the method of Helgerud et al. [J. Lipid Res. 22, 271 (1981)] by measuring radioactivity incorporated into cholesterol esters from [1-14C]oleyl-CoA, as an indication. As to the ACAT-inhibiting activity of each compound to be tested, the inhibition rate was calculated by the following equation.

[2] = test system: cholesterol esterification in macrophages; test: Inhibitory effect on cholesterol esterification in macrophages (J774 A.1 cells, AcLDL-loaded, [14C]oleate incorporation); type: cell-based; conditions: Mus musculus, Macrophage, read-out: Inhibition rate (%)
Procedure: Inhibitory effect on cholesterol esterification in macrophages
The test was carried out by a modification of the method of Goldstein et al. [Pro. Nat. Acad. Sci. USA 71, 4288 (1974)]. J774 A.1 cells, the mouse macropharge-like cell line, were suspended in Dulbecco's modified Eagle's medium (DMEM) containing 10% fetal calf serum (FCS), in a proportion of 3×10^5 cells per 2 ml and were seeded into in 6-well plates. The cells were cultured under a humidified atmosphere of 95% air/5% CO2 at 37° C. for 24 hours. The medium was replaced by 1 ml of DMEM containing 10% of FCS and 50 μg/ml of acetylated human low density lipoprotein (AcLDL), followed by culturing for 16 hours. Five microliters each compound was dissolved in dimethyl sulfoxide and solution was added to the medium, followed by culturing for another 2 hours. Then, [14C]oleate (2×10^6 dpm/well) bovine serum albumin complex was added in the medium. After 2 hours of culture cells were collected and the cholesterol-esterifying activity was determined by measuring radioactivity incorporated into cholesterol esters in the cells. The recovery of the cholesterol esters was determined by the addition of [3H]cholesteryl oleate, and the esterifying activity was corrected using the recovery. As to the inhibitory activity on cholesterol esterification of the compound to be tested, the inhibition rate was calculated by the following equation. [formula] wherein A: the cholesterol-esterifying activity of AcLDL-loaded cells to which the compound to be tested was-added.
B: the cholesterol-esterifying activity of AcLDL-loaded cells to which dimethyl sulfoxide was added.

serum cholesterol = test: Serum cholesterol lowering activity in hamsters fed on a high-cholesterol diet; type: in vivo, Male Syrian hamsters; conditions: 30 mg per kg of body weight per day for 4 days, 24 hours after the last administration
Procedure: Serum cholesterol lowering activity in hamsters fed on a high-cholesterol diet
Male Syrian hamsters of 10-week-old were divided into three groups. The first group (normal group) was fed an ordinary diet for 4 days. The second group (control group) was fed a high cholesterol diet (containing 0.5% cholesterol and 8.0% coconut oil for 4 days. The third group (treated group) was fed a high cholesterol diet and was treated with a compound for 4 days. Simultaneously with the beginning of the above feeding, the compound suspended in a 0.5% carboxymethyl cellulose solution was administered to the treated group, in a dose of 30 mg (in terms of the compound) per kg of body weight per day for 4 days. A 0.5% carboxymethyl cellulose solution was also administered to the normal group and the control group in the same manner as above. After 24 hours of the last administration, blood was collected and the cholesterol concentration in serum was measured by an enzymatic method. The reduction rate of the total serum cholesterol concentration was calculated from values obtained for the three groups by the following equation. [formula] wherein A: the serum cholesterol concentration of the control group.
B: the serum cholesterol concentration of the compound treated group.
C: the serum cholesterol concentration of the normal group.

Row | inhibition at 0.01 µM [1] [%] | inhibition at 1 µM ([1]; 1 μM) [%] | SMILES | inhibition at 0.1 µM [2] [%] | inhibition at 1 µM [2] [%] | Reduction rate (%) of the total serum cholesterol concentration (serum cholesterol) [%]
1 | 82.9 | 99.4 | CCc1cccc(CC)c1NC(=O)Nc1oc2ccc(Cl)cc2c1-c1ccccc1Cl [Compound 12, N-[5-Chloro-3-(2-chlorophenyl)benzofuran-2-yl]-N'-(2,6-diethylphenyl)urea] | 93 | 99.5 | 55.0
2 | 69.9 |  | CCc1cccc(CC)c1NC(=O)Nc1sc2cc(C)c(C)cc2c1-c1ccccc1Cl [Compound 80, N-[3-(2-Chlorophenyl)-5,6-dimethyl-1-benzothiophen-2-yl]-N'-(2,6-diethylphenyl)urea] | 85.3 | 96.9 | 85.9
